pIC50: −log10 of the molar value. Several values for one entry are separate records, joined by “and”; a condition that tells them apart may be missing. Identical values can stand only once. Ends that are not written are not given here.
Target: T1, ACE from pig kidney (Sus scrofa, UniProt F1RRW5)
T1 construct: 1 mU ACE from pig kidney (EC 3.4.15.1 (Sigma)); purchased Sigma; host or cells: pig kidney (tissue-derived enzyme)
T1 sequence (F1RRW5 34-1309): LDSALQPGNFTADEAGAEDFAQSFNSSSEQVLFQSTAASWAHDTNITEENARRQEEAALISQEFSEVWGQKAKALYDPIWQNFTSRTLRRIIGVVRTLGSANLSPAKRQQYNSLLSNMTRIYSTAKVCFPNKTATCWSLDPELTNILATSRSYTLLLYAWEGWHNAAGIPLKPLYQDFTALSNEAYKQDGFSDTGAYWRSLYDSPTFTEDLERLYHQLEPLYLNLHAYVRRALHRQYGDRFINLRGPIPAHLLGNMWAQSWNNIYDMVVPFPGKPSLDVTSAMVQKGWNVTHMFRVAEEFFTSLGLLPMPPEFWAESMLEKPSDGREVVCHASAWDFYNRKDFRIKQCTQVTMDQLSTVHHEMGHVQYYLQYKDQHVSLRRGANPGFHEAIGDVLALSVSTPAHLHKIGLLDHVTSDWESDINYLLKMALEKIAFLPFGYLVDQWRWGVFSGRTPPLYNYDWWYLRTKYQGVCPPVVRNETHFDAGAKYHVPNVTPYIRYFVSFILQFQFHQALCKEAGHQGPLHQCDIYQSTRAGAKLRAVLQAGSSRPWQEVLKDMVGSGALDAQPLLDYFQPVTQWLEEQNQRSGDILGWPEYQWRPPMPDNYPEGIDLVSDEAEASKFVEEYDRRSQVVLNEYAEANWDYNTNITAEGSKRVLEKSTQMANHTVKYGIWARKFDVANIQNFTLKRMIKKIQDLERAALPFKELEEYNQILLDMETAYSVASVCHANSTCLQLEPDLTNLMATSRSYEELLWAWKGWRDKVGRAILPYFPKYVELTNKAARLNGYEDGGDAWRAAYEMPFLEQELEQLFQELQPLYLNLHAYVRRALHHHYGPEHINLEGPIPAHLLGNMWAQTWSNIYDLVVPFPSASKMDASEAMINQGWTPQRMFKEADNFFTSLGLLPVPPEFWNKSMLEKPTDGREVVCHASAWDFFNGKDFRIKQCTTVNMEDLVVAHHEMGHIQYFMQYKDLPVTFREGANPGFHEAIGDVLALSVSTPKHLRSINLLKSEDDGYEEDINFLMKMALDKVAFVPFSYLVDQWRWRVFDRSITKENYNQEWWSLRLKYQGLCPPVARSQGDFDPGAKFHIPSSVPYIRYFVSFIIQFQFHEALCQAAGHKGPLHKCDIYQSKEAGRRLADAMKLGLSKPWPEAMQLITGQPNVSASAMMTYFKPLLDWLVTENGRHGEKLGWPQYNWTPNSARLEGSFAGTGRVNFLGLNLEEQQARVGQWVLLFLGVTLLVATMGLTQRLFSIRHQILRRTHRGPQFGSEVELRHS
Assay: biochemical
Format: biochemical
Settings: for pIC50: ACE from pig kidney, determined graphically, read-out: IC50-value (ACE inhibition)
Source text: These peptides were investigated for their inhibitory effect using an in vitro-ACE-inhibitor-assay with an angiotensin-converting-enzyme derived from pig kidney. Hippuryl-histidyl-leucin was used as a substrate. […] A concrete experimental description is given below.
The principle of the ACE-inhibition-assay was established by Chejung, H. S., Cushman, D. W.: “Inhibition of homogenous angiotensin converting enzyme of rabbit lung by synthetic venom peptides of Bothrops jararaca.” in Biochimica et Biophysica Acta 293, 451-563 (1973).
The assay was performed in 96 well HTRF-plates (Packard). The concentrations used for each well were:
1 mU ACE from pig kidney (EC 3.4.15.1 (Sigma)) in 30 μl of assay buffer (25 mM HEPES; 0,3 M NaCl, pH 8,2) and 20 μl inhibitor dissolved in assay buffer (0,35-200 μM). The reaction was started by adding 50 μl of 2 mM hippuryl-histidyl-leucin (Sigma) in assay buffer. The reaction was performed at room temperature (22° C.) for 30 minutes and terminated by adding 50 μl of 2 M NaOH. Afterwards 50 μl of 0,5% ortho-phtalaldehyd (Sigma) in methanol were added, 5 minutes later followed by 50 μl of 2,5 M HCl-solution to stabilize the developed fluorescence product.
The results were used to calculate the % inhibition. The IC50-values were determined graphically from a curve showing the dose-reaction ratio.
In order to minimize errors due to time-dependent differences, all pipetting steps were performed in a precise time schedule.

[1] = inhibitor 0.39 μM, replicates A-D
[2] = inhibitor 0.39 μM, replicates A-D, 0.39 µM
[3] = inhibitor 0.78125 μM, replicates A-D
[4] = inhibitor 0.78125 μM, replicates A-D, 0.78125 µM
[5] = inhibitor 1.5625 μM, replicates A-D
[6] = inhibitor 1.5625 μM, replicates A-D, 1.5625 µM
[7] = inhibitor 3.125 μM, replicates A-D
[8] = inhibitor 3.125 μM, replicates A-D, 3.125 µM
[9] = inhibitor 6.25 μM, replicates A-D
[10] = inhibitor 6.25 μM, replicates A-D, 6.25 µM
[11] = inhibitor 12.5 μM, replicates A-D
[12] = inhibitor 12.5 μM, replicates A-D, 12.5 µM
[13] = inhibitor 25 μM, replicates A-D
[14] = inhibitor 25 μM, replicates A-D, 25 µM
[15] = inhibitor 50 μM, replicates A-D
[16] = inhibitor 50 μM, replicates A-D, 50 µM
[17] = inhibitor 100 μM, replicates A-D
[18] = inhibitor 100 μM, replicates A-D, 100 µM
[19] = inhibitor 200 μM, replicates A-D
[20] = inhibitor 200 μM, replicates A-D, 200 µM

Molecule	pIC50	fluorescence reading (ACE Inhibitor Assay) [1]	% inhibition (ACE Inhibitor Assay) [2]	fluorescence reading (ACE Inhibitor Assay) [3]	% inhibition (ACE Inhibitor Assay) [4]	fluorescence reading (ACE Inhibitor Assay) [5]	inhibition at 1.5625 µM [5] [%]	% inhibition (ACE Inhibitor Assay) [6]	fluorescence reading (ACE Inhibitor Assay) [7]	inhibition at 3.125 µM [7] [%]	% inhibition (ACE Inhibitor Assay) [8]	fluorescence reading (ACE Inhibitor Assay) [9]	inhibition at 6.25 µM [9] [%]	% inhibition (ACE Inhibitor Assay) [10]	fluorescence reading (ACE Inhibitor Assay) [11]	inhibition at 12.5 µM [11] [%]	% inhibition (ACE Inhibitor Assay) [12]	fluorescence reading (ACE Inhibitor Assay) [13]	inhibition at 25 µM [13] [%]	% inhibition (ACE Inhibitor Assay) [14]	also measured
CC(C)C[C@H](NC(=O)[C@@H]1CCCN1C(=O)[C@@H](N)CO)C(=O)N1CCC[C@H]1C(=O)N[C@@H](CCC(=O)O)C(=O)N[C@H](C(=O)N1CCC[C@H]1C(=O)N1CCC[C@H]1C(=O)O)C(C)C [Peptide S547]	4.57	968576 and 976911 and 1033152 and 933502	6.82% and 6.02% and 0.575% and 10.22%	935415 and 959358 and 928034 and 939702	7.72% and 10.75% and 9.62%	885259 and 942952 and 905782 and 900439	14.9	9.3% and 12.9% and 13.42%	853233 and 874120 and 919377 and 814056	18	15.96% and 11.6% and 21.78%	737068 and 749780 and 773384 and 715138	29.2	28% and 25.72% and 31.35%	661504 and 674042 and 682861 and 660883	36.5	35.33% and 34.48% and 36.6%	561516 and 529553 and 559590 and 501835	46.2	49.3% and 46.4% and 52%	inhibition at 0.78125 µM [3]: 10%; fluorescence reading (ACE Inhibitor Assay) [15]: 367055 and 382045 and 460226 and 346051; inhibition at 50 µM [15]: 65%; % inhibition (ACE Inhibitor Assay) [16]: 63.59% and 56.02% and 67.07%; fluorescence reading (ACE Inhibitor Assay) [17]: 229409 and 229360 and 232610 and 214324; inhibition at 100 µM [17]: 78.4%; % inhibition (ACE Inhibitor Assay) [18]: 78.05% and 79.82%; fluorescence reading (ACE Inhibitor Assay) [19]: 115847 and 125213 and 123605 and 113488; inhibition at 200 µM [19]: 89.4%; % inhibition (ACE Inhibitor Assay) [20]: 88.45% and 88.6% and 89.58%
EAGAALSPLPEVPP [Peptide S542]	4.42	930945 and 967806 and 1003456 and 906307	4.59% and 0.79% and −2.87% and 7.13%	910838 and 902555 and 939597 and 880680	6.66% and 7.52% and 3.7% and 9.77%	794214 and 874684 and 882788 and 794177	18.7	10.39% and 9.55%	821478 and 820849 and 868901 and 796263	15.9	15.93% and 10.98% and 18.47%	801078 and 799975 and 802324 and 795040	18	18.08% and 17.84% and 18.59%	719799 and 744223 and 765229 and 709216	26.3	23.83% and 21.66% and 27.43%	609106 and 591988 and 618193 and 569641	37.8	39.51% and 36.81% and 41.81%	fluorescence reading (ACE Inhibitor Assay) [15]: 424530 and 419325 and 440093 and 406539; inhibition at 50 µM [15]: 56.8%; % inhibition (ACE Inhibitor Assay) [16]: 57.3% and 55.16% and 58.61%; fluorescence reading (ACE Inhibitor Assay) [17]: 273140 and 278465 and 286263 and 274375; inhibition at 100 µM [17]: 72.3%; % inhibition (ACE Inhibitor Assay) [18]: 71.8% and 71% and 72.23%; fluorescence reading (ACE Inhibitor Assay) [19]: 167517 and 173807 and 184836 and 169891; inhibition at 200 µM [19]: 83.2%; % inhibition (ACE Inhibitor Assay) [20]: 82.59% and 81.45% and 82.99%
